Measurements: US20250325553A1, “METHODS OF TREATING CANCER” (FOGHORN THERAPEUTICS INC., priority 2022, published 2025)
Where two headings read alike, the source gives them in different places.

Columns and labels:
[1] = Phase 1 dose escalation clinical trial, preliminary pharmacokinetics; assay type: in vivo; conditions: preliminary PK analysis
Description: (§1) A Phase 1 dose escalation clinical trial of Compound A is conducted. The trial is primarily intended to determine the maximum tolerated dose (MTD) and/or recommended phase 2 dose of the compound when administered orally to subjects with metastatic uveal melanoma.
(§2) In this ongoing study, Compound A has been administered at dose levels of 2.5 mg once a day (QD), 5 mg QD, 7.5 mg QD, and 10 mg QD to 17 subjects with metastatic uveal melanoma.

[2] = tested on: subjects with metastatic uveal melanoma; experiment: Phase 1 dose escalation clinical trial, dose limiting toxicity; assay type: in vivo; conditions: one subject treated at the 7.5 mg dose; improved with a dose hold
Description: as §1, §2

[3] = tested on: metastatic uveal melanoma; experiment: Phase 1 dose escalation clinical trial, tumor response; assay type: in vivo, human; conditions: 2.5-10 mg QD oral, 17 subjects with metastatic uveal melanoma
Description: as §1, §2

[4] = Population PK model of orally administered Compound A patient data; assay type: in vivo, human
Description: A population PK model based on orally administered Compound A dosing data in a total of 10 patients with metastatic uveal melanoma (UM) and advanced hematologic malignancies (e.g., acute myeloid leukemia (AML)) was performed.
Nonlinear mixed-effects models were fitted to concentration vs. time data of FHD-286. Various compartmental models with linear elimination (1-, 2- and 3-compartment), absorption models, structures of omega on clearances, volumes and absorption parameters (diagonal and block) were developed to assess the PK of Compound A.
Overall, a two-compartment model with linear elimination, a zero-order oral absorption, and a lag time of absorption adequately characterized the concentration-time profiles of Compound A.
Exploratory analysis of covariate effects was performed with appropriate plots presenting relationships between the ETAs (e.g., values reflecting the difference between and individual's parameter value and that of the population) of PK parameters to identify any remaining covariate trends. […] Therefore a “Multiple Dose Effect” on CL was included in the model to account for this change over time.
No other covariates were included as part of the model.

COC[C@H](NC(=O)c1ccn(S(C)(=O)=O)c1)C(=O)Nc1nc(-c2cccc(N3C[C@@H](C)O[C@@H](C)C3)n2)cs1 [Compound A, N-(1-((4-(6-(2,6-dimethylmorpholino)pyridin-2-yl)thiazol-2-yl)amino)-3-methoxy-1-oxopropan-2-yl)-1-(methylsulfonyl)-1H-pyrrole-3-carboxamide]
half-life ([1]; oral 2.5, 5, 7.5, 10 mg QD, subjects with metastatic uveal melanoma): long half-life | plasma concentrations of the compound ([1]; oral 2.5-10 mg QD dose levels): increase with increasing dose | dose limiting toxicity [2]: Grade 3 keratitis | tumor response [3]: Stable disease and reductions in tumor burden | clearance (CL) over time ([4]; after multiple doses): reduction in clearance | Vc, Estimate ([4]; final PK model parameter): 54.6 L | Tlag, Estimate ([4]; final PK model parameter, lag time of absorption): 0.452 h | Dur, Estimate ([4]; final PK model parameter, zero-order oral absorption, two-compartment model, 10 patients (UM, AML)): 1.77 h | clearance ([4]; human, in vivo, oral, final PK model parameter, linear elimination, read-out: CL, Estimate (converted)): 67.8 mL/min | clearance ([4]; human, in vivo, oral, final PK model parameter, read-out: CLp, Estimate (converted)): 510 mL/min | Vd ([4]; human, in vivo, oral, final PK model parameter, read-out: Vd, Estimate): 165 L
